For data set [1], the target named is T1, Intercellular adhesion molecule (ICAM-1), Integrin alpha-L/beta-2 (Homo sapiens, UniProt P05107+P05362+P20701). Description: Inhibition of LFA1/ICAM1 interaction in human Hut-78 cells. It counts as cell-based.
Data set [2] deals with T1, Intercellular adhesion molecule (ICAM-1), Integrin alpha-L/beta-2. Description: Inhibition of LFA1/ICAM1 interaction in human Hut-78 cells in presence of 10% human serum. It counts as cell-based.
The nature of data set [3]: Metabolic stability in human liver microsomes after 30 mins by LC/MS analysis. It counts as ADME, Microsome. Particulars: read-out: Stability. (Liver microsomes are a subcellular fraction often used to study metabolism.)
The nature of data set [4]: Clearance in Sprague-Dawley rat at 5 mg/kg administered as single dose. Details: dose 5 mg/kg. Particulars: in vivo. It counts as ADME, organism-based.
Data set [5] in a line: Half life in Sprague-Dawley rat at 5 mg/kg administered as single dose. The data set is classed as ADME, organism-based. Details: dose 5 mg/kg. Particulars: in vivo.
Data set [6] is described as follows: AUC in Sprague-Dawley rat at 5 mg/kg administered as single dose. It counts as ADME, organism-based. Particulars: plasma. Also on record: dose 5 mg/kg.
Data set [7] in a line: Metabolic stability in Sprague-Dawley rat liver microsomes after 30 mins by LC/MS analysis. The data set is classed as ADME, Microsome. The note with it: read-out: Stability.

Structures are written as SMILES. A value given as a limit tells only on which side of the number the result lay.

T1 sequence (P20701 whole entry): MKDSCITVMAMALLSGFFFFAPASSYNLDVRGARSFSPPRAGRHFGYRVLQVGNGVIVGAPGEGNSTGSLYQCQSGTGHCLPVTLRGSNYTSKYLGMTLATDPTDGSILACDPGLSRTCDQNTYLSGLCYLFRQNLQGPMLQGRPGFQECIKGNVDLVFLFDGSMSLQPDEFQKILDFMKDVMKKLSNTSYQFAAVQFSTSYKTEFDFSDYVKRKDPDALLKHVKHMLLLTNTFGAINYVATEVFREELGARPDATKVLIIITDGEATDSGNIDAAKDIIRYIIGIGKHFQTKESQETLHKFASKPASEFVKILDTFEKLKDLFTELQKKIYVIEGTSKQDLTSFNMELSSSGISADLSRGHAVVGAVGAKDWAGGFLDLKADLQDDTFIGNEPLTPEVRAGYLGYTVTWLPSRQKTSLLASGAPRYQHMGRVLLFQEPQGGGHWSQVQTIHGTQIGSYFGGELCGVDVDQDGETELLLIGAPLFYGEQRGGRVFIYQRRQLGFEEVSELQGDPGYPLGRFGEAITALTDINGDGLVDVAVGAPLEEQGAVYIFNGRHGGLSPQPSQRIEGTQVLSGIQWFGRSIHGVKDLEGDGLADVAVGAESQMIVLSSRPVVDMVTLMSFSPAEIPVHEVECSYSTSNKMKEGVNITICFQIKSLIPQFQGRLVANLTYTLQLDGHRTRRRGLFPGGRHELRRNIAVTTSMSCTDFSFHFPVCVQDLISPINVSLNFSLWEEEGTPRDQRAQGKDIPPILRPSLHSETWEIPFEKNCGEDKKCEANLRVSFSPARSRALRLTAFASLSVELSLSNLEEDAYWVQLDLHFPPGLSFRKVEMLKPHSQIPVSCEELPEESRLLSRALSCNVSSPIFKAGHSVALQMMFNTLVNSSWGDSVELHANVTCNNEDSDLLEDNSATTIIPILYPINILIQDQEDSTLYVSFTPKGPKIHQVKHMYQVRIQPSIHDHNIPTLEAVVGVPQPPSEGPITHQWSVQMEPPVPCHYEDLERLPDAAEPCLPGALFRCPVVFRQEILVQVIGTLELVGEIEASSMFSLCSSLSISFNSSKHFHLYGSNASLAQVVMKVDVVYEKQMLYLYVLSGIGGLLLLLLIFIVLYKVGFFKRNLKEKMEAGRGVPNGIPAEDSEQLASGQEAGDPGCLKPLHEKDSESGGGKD
T1 sequence (P05362 whole entry): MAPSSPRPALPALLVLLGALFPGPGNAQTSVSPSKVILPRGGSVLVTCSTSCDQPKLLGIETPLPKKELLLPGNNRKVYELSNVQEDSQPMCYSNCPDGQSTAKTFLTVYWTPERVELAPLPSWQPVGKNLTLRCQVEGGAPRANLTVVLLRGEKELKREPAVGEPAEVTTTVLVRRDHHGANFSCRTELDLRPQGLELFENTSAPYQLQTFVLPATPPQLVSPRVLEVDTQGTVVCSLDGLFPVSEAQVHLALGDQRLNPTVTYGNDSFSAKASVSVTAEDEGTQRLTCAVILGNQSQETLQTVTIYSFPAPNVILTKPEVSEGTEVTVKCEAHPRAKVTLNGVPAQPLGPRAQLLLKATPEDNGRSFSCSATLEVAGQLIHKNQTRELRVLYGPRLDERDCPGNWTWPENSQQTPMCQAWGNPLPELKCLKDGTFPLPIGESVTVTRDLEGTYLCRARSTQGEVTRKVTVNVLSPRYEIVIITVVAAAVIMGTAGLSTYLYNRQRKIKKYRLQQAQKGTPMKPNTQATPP
T1 sequence (P05107 whole entry): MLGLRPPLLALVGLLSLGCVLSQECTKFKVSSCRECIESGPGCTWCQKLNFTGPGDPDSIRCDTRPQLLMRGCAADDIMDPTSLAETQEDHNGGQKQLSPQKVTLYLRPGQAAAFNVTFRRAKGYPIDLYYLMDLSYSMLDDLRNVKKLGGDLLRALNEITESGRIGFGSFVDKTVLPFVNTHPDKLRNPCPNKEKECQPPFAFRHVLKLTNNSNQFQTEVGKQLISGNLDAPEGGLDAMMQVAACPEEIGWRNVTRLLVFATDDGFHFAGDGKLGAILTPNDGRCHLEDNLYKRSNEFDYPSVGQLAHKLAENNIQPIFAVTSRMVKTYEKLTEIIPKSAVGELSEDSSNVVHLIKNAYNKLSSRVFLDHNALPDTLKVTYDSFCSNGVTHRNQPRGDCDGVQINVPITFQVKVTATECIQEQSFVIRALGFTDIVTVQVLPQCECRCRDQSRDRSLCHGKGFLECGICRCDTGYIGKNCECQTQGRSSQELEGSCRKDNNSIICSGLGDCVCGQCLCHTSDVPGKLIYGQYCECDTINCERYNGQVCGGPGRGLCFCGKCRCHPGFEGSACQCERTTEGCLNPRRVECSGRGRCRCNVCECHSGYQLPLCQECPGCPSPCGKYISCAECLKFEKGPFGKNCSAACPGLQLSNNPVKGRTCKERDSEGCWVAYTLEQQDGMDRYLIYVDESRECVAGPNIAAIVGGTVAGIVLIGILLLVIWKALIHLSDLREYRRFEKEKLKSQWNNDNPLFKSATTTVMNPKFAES

`CC(=O)n1cc(C[C@H](NC(=O)c2c(Cl)cc3c(c2Cl)CCN(C(=O)c2ccc(Cl)cc2)C3)C(=O)O)c2ccccc21`: the IC50 (as a rule, the concentration needed to halve the response being measured) in data set [1] turned out to be 820 nM.
Take `CC(C)n1cc(C[C@H](NC(=O)c2c(Cl)cc3c(c2Cl)CCN(C(=O)c2ccc(Cl)cc2)C3)C(=O)O)nn1`: the results for the IC50 in data set [2] and in data set [1] were 1000 nM and 59 nM, respectively. In addition, the remaining at 0.5 h in data set [3] came out at 92%. Moreover, in data set [4], the clearance (usually a measure of how efficiently the substance is removed, as volume per time) was greater than 60 mL/min/kg. Further, the half-life – broadly, the time in which the quantity being followed falls by half – in data set [5] was 138 min. Further, in data set [6], the AUC (commonly concentration integrated over time) came out at 1410 ng·h/mL.
As for `CC(C)n1cc(C[C@H](NC(=O)c2c(Cl)cc3c(c2Cl)CCN(C(=O)c2cc4ccccn4n2)C3)C(=O)O)nn1`, the IC50 worked out at 260 nM in data set [2] and 7 nM in data set [1].
`CS(=O)(=O)c1ccc(C[C@H](NC(=O)c2c(Cl)cc3c(c2Cl)CCN(C(=O)c2ccc4ccoc4c2)C3)C(=O)O)s1` yielded an IC50 in data set [1] of 150 nM.
As for `NS(=O)(=O)n1cc(C[C@H](NC(=O)c2c(Cl)cc3c(c2Cl)CCN(C(=O)c2ccc(Cl)cc2)C3)C(=O)O)c2ccccc21`, the IC50 in data set [1] is greater than 1000 nM.
Compound `CC(C)c1cnc(C[C@H](NC(=O)c2c(Cl)cc3c(c2Cl)CCN(C(=O)c2ccc(Cl)cc2)C3)C(=O)O)s1` registered a 50% inhibitory concentration (IC50) in data set [1] greater than 1000 nM.
`Cc1ccc2c(C[C@H](NC(=O)c3c(Cl)cc4c(c3Cl)CCN(C(=O)c3ccc(Cl)cc3)C4)C(=O)O)cn(S(C)(=O)=O)c2c1`: the values for the IC50 in data set [2] and in data set [1] were 25000 nM and 39 nM, respectively.
As for `CC(C)n1cnc(C[C@H](NC(=O)c2c(Cl)cc3c(c2Cl)CCN(C(=O)c2ccc(Cl)cc2)C3)C(=O)O)c1`, inhibition in data set [1] was half-maximal at 170 nM (IC50).
`O=C(N[C@@H](Cc1c[nH]cn1)C(=O)O)c1c(Cl)cc2c(c1Cl)CCN(C(=O)c1ccc(Cl)cc1)C2` yielded an IC50 in data set [1] of 430 nM.
As for `CCOC(=O)[C@H](CNC(=O)c1cccs1)NC(=O)c1c(Cl)cc2c(c1Cl)CCN(C(=O)c1ccc3ccoc3c1)C2`, the IC50 in data set [2] was determined as 950 nM.
`CS(=O)(=O)c1ncc(C[C@H](NC(=O)c2c(Cl)cc3c(c2Cl)CCN(C(=O)c2ccc4ccoc4c2)C3)C(=O)O)[nH]1`: the IC50 in data set [2] amounted to 560 nM; in data set [1], 30 nM.
In data set [1], `CC(C)c1cc(C[C@H](NC(=O)c2c(Cl)cc3c(c2Cl)CCN(C(=O)c2ccc(Cl)cc2)C3)C(=O)O)[nH]n1` yielded an IC50 of 250 nM.
For the compound `CC(C)n1cc(C[C@H](NC(=O)c2c(Cl)cc3c(c2Cl)CCN(C(=O)c2ccc4ccoc4c2)C3)C(=O)O)nn1`, the figures for the IC50 in data set [2] and in data set [1] were 950 nM and 19 nM, respectively. The remaining at 0.5 h in data set [7] was greater than 95%; in data set [3], 86%. Besides, the clearance in data set [4] is 26 mL/min/kg. The compound further gave a half-life in data set [5] of 58.2 min. In addition, the AUC in data set [6] was 3680 ng·h/mL.
In data set [1], `CS(=O)(=O)N1CCC(C[C@H](NC(=O)c2c(Cl)cc3c(c2Cl)CCN(C(=O)c2ccc4ccoc4c2)C3)C(=O)O)C1` (stereo not given in full) yielded an IC50 of 1000 nM.
As to `Cn1cnc(C[C@H](NC(=O)c2c(Cl)cc3c(c2Cl)CCN(C(=O)c2ccc(Cl)cc2)C3)C(=O)O)c1`, in data set [1], the IC50 was 560 nM.
As to `O=C(NC[C@H](NC(=O)c1c(Cl)cc2c(c1Cl)CCN(C(=O)c1ccc3ccoc3c1)C2)C(=O)O)c1cccs1`, the IC50 amounted to 950 nM in data set [2] and 5 nM in data set [1].
For `CS(=O)(=O)n1cc(C[C@H](NC(=O)c2c(Cl)cc3c(c2Cl)CCN(C(=O)c2ccc(Cl)cc2)C3)C(=O)O)c2ccccc21` the same measures were 25000 nM and 100 nM.
Consider `Cc1cccc2c(C[C@H](NC(=O)c3c(Cl)cc4c(c3Cl)CCN(C(=O)c3ccc(Cl)cc3)C4)C(=O)O)cn(S(C)(=O)=O)c12`, for which the figures for the IC50 in data set [2] and in data set [1] were 25000 nM and 140 nM, respectively.
The compound `O=C(N[C@@H](Cc1cn(-c2ccccc2)cn1)C(=O)O)c1c(Cl)cc2c(c1Cl)CCN(C(=O)c1ccc(Cl)cc1)C2` had an IC50 in data set [1] greater than 1000 nM.
As to `Cc1ccc2c(c1)c(C[C@H](NC(=O)c1c(Cl)cc3c(c1Cl)CCN(C(=O)c1ccc(Cl)cc1)C3)C(=O)O)cn2S(C)(=O)=O`, the IC50 in data set [2] was found to be 11000 nM; in data set [1], 26 nM.
The compound `Cc1cccc2c1c(C[C@H](NC(=O)c1c(Cl)cc3c(c1Cl)CCN(C(=O)c1ccc(Cl)cc1)C3)C(=O)O)cn2S(C)(=O)=O` showed an IC50 in data set [1] greater than 1000 nM.
As to `O=C(NC[C@H](NC(=O)c1c(Cl)cc2c(c1Cl)CCN(C(=O)c1ccc(Cl)cc1)C2)C(=O)O)c1cccs1`, the IC50 in data set [2] was found to be 1500 nM.
In the case of `CS(=O)(=O)c1ccc(C[C@H](NC(=O)c2c(Cl)cc3c(c2Cl)CCN(C(=O)c2ccc4ccoc4c2)C3)C(=O)O)o1`, the half-maximal inhibitory concentration (IC50) turned out to be 96 nM in data set [2] and 1.2 nM in data set [1]. The remaining at 0.5 h in data set [7] was greater than 65%; in data set [3], greater than 95%. In data set [4], this compound had a clearance of 60 mL/min/kg. In data set [5], the half-life is 25.8 min. In data set [6], this compound displayed an AUC of 1510 ng·h/mL.
As for `CC(C)c1cn(C[C@H](NC(=O)c2c(Cl)cc3c(c2Cl)CCN(C(=O)c2ccc(Cl)cc2)C3)C(=O)O)nn1`, in data set [1], the IC50 was determined as 310 nM.
With `CC(C)n1cc(C[C@H](NC(=O)c2c(Cl)cc3c(c2Cl)CCN(C(=O)c2cc4ccccc4o2)C3)C(=O)O)nn1`, the IC50 in data set [2] is 190 nM; in data set [1] it was 5 nM.
